Publication PMC11091879, “Inhibitors of the Thioesterase Activity of Mycobacterium tuberculosis Pks13 Discovered Using DNA-Encoded Chemical Library Screening” (ACS Infectious Diseases, 2024)

Experiments:
Type in all cases: cell-based, Mycobacterium tuberculosis
[1] = test system: H37Rv Pks13-TE A1564D mutant
[2] = test system: H37Rv Pks13-TE A1561 V mutant
[3] = test system: H37Rv Pks13-TE V1537A mutant
[4] = test system: H37Rv Pks13-TE Y1686C mutant
[5] = test system: H37Rv Pks13-TE R1563H mutant
[6] = test system: H37Rv Pks13-TE N1640K mutant
[7] = test system: H37Rv Pks13-TE V1687F mutant
[8] = test system: H37Rv Pks13-TE Y1674C mutant
WT H37Rv = test system: WT H37Rv

| SMILES | Fold Change in MIC (Mutant MIC/WT H37Rv MIC) [1] | Fold Change in MIC (Mutant MIC/WT H37Rv MIC) [2] | Fold Change in MIC (Mutant MIC/WT H37Rv MIC) [3] | Fold Change in MIC (Mutant MIC/WT H37Rv MIC) [4] | Fold Change in MIC (Mutant MIC/WT H37Rv MIC) [5] | Fold Change in MIC (Mutant MIC/WT H37Rv MIC) [6] | Fold Change in MIC (Mutant MIC/WT H37Rv MIC) [7] | Fold Change in MIC (Mutant MIC/WT H37Rv MIC) [8] | frequency of resistance (FOR) (WT H37Rv) |
| --- | --- | --- | --- | --- | --- | --- | --- | --- | --- |
| CO[C@H]1/C=C/O[C@@]2(C)Oc3c(C)c(O)c4c(O)c(c(/C=N/N5CCN(C)CC5)c(O)c4c3C2=O)NC(=O)/C(C)=C\C=C\[C@H](C)[C@H](O)[C@@H](C)[C@@H](O)[C@@H](C)[C@H](OC(C)=O)[C@@H]1C [Rifampicin, reference compound] | 0.8 fold | 1.2 fold | 1.3 fold | 1 fold | 0.9 fold | 1.5 fold | 1.2 fold | 1.6 fold |  |
| COc1ccc(OC)c(-c2ccc(-c3cn(CCc4ccc(C(=O)N(C)C)cc4)nn3)cn2)c1 [X20404] | >63 fold | 40 fold | >63 fold | 19 fold | >63 fold | 37 fold | >63 fold | >63 fold | 4.7 × 10^–7 |
| Cc1cc(C(=O)NCc2ccncc2)nc(N2CCC(C(=O)N3CCN(C(=O)c4cnc5c(C)cccc5c4)CC3)CC2)n1 [X21429] | 17 fold | >57 fold | 8.8 fold | 3.8 fold | 1.6 fold | >57 fold | 2.3 fold | 18 fold |  |
